Assay results from PMC5380659, “Unique charge-dependent constraint on collagen recognition by integrin α10β1” (Matrix Biology, 2017).
Entries after “also recorded” stand apart in the source; their conditions may differ.

What was measured:
[1] = test system: human recombinant GST-α10 I domain; assay: Solid-phase binding assay (SPBA) of wild-type α10 I domain; conditions: short THPs, 2 mM Mg^2 +, 1 h, Fig. 4A
Method: The α10 I domain was applied to the collagen II and III Toolkits in the presence or absence of Mg^2 +, and was detected using anti-GST, as described in Experimental: data are shown in Fig. 1. The background response is indicated by wells coated with the control peptide, GPP10 (corresponding to the host sequence), or BSA.
(§1) I domain adhesion was determined colorimetrically, as described, here termed solid phase binding assay (SPBA). Peptides were coated at 10 μg/ml for 1 h at 22 °C on Immulon-2 HB 96-well plates (Thermo Life Sciences, Basingstoke, UK), and blocked for 1 h with 200 μl of TBS containing 50 mg/ml bovine serum albumin. Wells were washed four times with 200 μl of the adhesion buffer (TBS with 1 mg/ml bovine serum albumin) before adding 100 μl of adhesion buffer containing 10 μg/ml of recombinant GST I domains in the presence of either 2 mM MgCl2 or EDTA for 1 h at room temperature. Wells were washed five times with 200 μl of adhesion buffer containing MgCl2 or EDTA, before adding 100 μl of adhesion buffer containing the anti-GST-HRP conjugate at 1:10,000 dilution for 1 h at room temperature. After washing, colour was developed using an ImmunoPure TMB Substrate Kit (Pierce) according to the manufacturer's instructions.

[2] = test system: collagen-binding integrins; set-up: method as in 3 sources, ref [7], [8] = [7]; PMID 10778855; doi:10.1016/S0092-8674(00)80622-4; 7 Emsley J. Knight C.G. Farndale R.W. Barnes M.J. Liddington R.C. Structural basis of collagen recognition by integrin alpha2beta1 Cell 101 1 2000 47 56 10778855 10.1016/S0092-8674(00)80622-4 || [8]; PMID 16326707; doi:10.1074/jbc.M509818200; 8 Raynal N. Hamaia S.W. Siljander P.R. Maddox B. Peachey A.R. Fernandez R. Foley L.J. Slatter D.A. Jarvis G.E. Farndale R.W. Use of synthetic peptides to locate novel integrin alpha2beta1-binding moti ||| ref [8], [10] = [8]; PMID 16326707; doi:10.1074/jbc.M509818200; 8 Raynal N. Hamaia S.W. Siljander P.R. Maddox B. Peachey A.R. Fernandez R. Foley L.J. Slatter D.A. Jarvis G.E. Farndale R.W. Use of synthetic peptides to locate novel integrin alpha2beta1-binding moti || [10]; PMID 16043429; doi:10.1074/jbc.M502431200; 10 Kim J.K. Xu Y. Xu X. Keene D.R. Gurusiddappa S. Liang X. Wary K.K. Hook M. A novel binding site in collagen type III for the integrins, alpha 1beta 1 and alpha 2beta 1 J. Biol. Chem. 280 2005 32512 ||| ref [11] = [11]; PMID 10986291; doi:10.1074/jbc.M007668200; 11 Xu Y. Gurusiddappa S. Rich R.L. Owens R.T. Keene D.R. Mayne R. Hook A. Hook M. Multiple binding sites in collagen type I for the integrins α1β1 and α2β1 J. Biol. Chem. 275 2000 38981 38989 10986291; conditions: cited from earlier work
From the text: Many related motifs have now been identified using the Collagen Toolkits developed in this laboratory for the purpose. These are libraries of overlapping peptides of 27 amino acids of collagen primary sequence (guest sequence), flanked ...

[3] = test system: α10β1; assay: Overall recognition by α10β1 (I domain and C2C12-α10β1 cells, summary); conditions: abstract and discussion; I domain and/or C2C12-α10β1 cells
Method: as §1
The mouse myoblast cell line, C2C12, (control and transfectants, C2C12-α1β1, C2C12-α2β1, C2C12-α10β1 or C2C12-α11β1) was maintained in RPMI medium containing 10% fetal bovine serum, 2 mM glutamine, 100 IU/ml penicillin, 100 μg/ml streptomycin, and 2.5 μg/ml amphotericin. Cells were harvested by centrifugation, washed, and suspended at 0.5 × 10^6/ml in Tris-buffered saline supplemented with 5.5 mM glucose and either 2 mM EDTA or 2 mM MgCl2. SPBA was performed as follows: 100 μl of the cell suspension was added to peptide-coated wells [42] at 20 °C for 60 min. Cell adhesion was determined colorimetrically after lysis, using a lactate dehydrogenase (LDH)-based cell detection kit (Roche Diagnostics) according to the supplier's instructions.
To quantitate C2C12-α10β1 binding to collagen peptides, we used the impedance-based xCELLigence system (Acea) that allows label-free, dynamic monitoring of cell adhesion in real-time. The assay system expresses the adhesion-dependent rise in well impedance in units of cell index (CI), defined as (Rn − Rb) / 15; where Rn is the electrical impedance of each cell-containing well and Rb is the background impedance of the well with medium alone

[4] = test system: C2C12-α2β1 cells; assay: xCELLigence real-time adhesion of C2C12-α2β1 cells; assay type: cell-based, mouse; conditions: up to 1 h, compared to GFOGER, Fig. 6B
[5] = test system: Other I domains that lack such a positive residue; assay: SPBA of I domains that lack the positive residue (wild type); assay type: binding, human; conditions: I domains lacking a positive residue at position 215
Method: Fig. 8 Arginine substitution of I domain surface reduces binding to Toolkit peptide III-4. Wild type I domain from α1, α2 and α10 were allowed to adhere to Toolkit peptide III-4 that contains GROGER, as described in Fig. 1, and binding is shown in A, B and C, respectively. In D and E, the natural glutamine residues of α1, Q214, and of α2, Q215, was replaced with arginine. In F, the natural arginine, R215, of α10 was replaced with glutamine.
as §1

Substance: GFOGER [THP containing GFOGER served as positive control, reference compound]
- Binding of α10 I domain to short triple-helical peptides [1]: less well
- Ligand of collagen-binding integrins, highest affinity motif ([2]; in collagens I and II, ref [7], [8]): highest affinity ligand

Substance: GLOGEN [short THP containing GLOGEN]
- Binding of α10 I domain to short triple-helical peptides [1]: bound strongly
- Recognition by α10β1, summary [3]: selective ligand in preference to GFOGER; also recorded: high-affinity site

Substance: GROGER [short triple-helical peptide containing GROGER]
- Adhesion of C2C12-α2β1 cells to short THP (time course) [4]: bound quite well
- Binding by other I domains [5]: bind GROGER well
- Ligand of collagen-binding integrins, GROGER ([2]; ref [8], [10]): quite a good ligand
- Recognition by α10β1, summary [3]: only weakly recognised by α10β1; also recorded: compromised in the context of α10β1; also recorded: α10-repellent
